Like-named read-outs stand apart in the source and are kept apart here.
Assays:
[1] = cited from earlier work
[2] = system: male Wistar rats fed the CDAA diet; experiment: Example 1 main study: hepatocarcinogenesis (HCA, HCC, fibrosis) in rats fed the CDAA diet for 70 weeks; assay type: in vivo, rat
Description: Animals, diets and chemical. The protocols were approved prior to the experiments by the Animal Experimentation committee at Nara Medical University according to the Guidelines on Animal Experiments in accordance with Japanese Government Animal Protection and Management Law Number 105 and Japanese Government Notification on Feeding and Safekeeping of Animals Number 6. Male Wistar rats, 6 weeks old, were purchased from JapanSLC, Inc., Hamamatsu, Shizuoka, Japan. Rats were housed 5 each to a plastic cage with white flake bedding (Kansai Animal Corp., City of Kyoto, Kyoto, Japan) in an air-conditioned room (25±3° C. temperature, 55 ±8% relative humidity, 10-12/h ventilation and 12-h dark/light cycle). Rats were used for the experimentation after a 1-week acclimation on a basal diet (CE-1, Clea Japan, Meguro, Tokyo, Japan) and allowed free access to food and tap water throughout the acclimation and experimental periods. Body weight, food consumption and water intake were monitored weekly. The CDAA diet and a control CSAA diet were obtained from Dyets Inc., Bethlehem, PA.
Main study. A total of 60 rats were equally divided into 6 groups. Group 1 received the CDAA diet for 70 weeks. […] The time-point of 26 weeks after the commencement, when treatments were changed in groups 3 and 4, was decided according to the results of the pilot study (see the Results and Discussion section below). All surviving rats were sacrificed 70 weeks after the commencement, and the livers were taken. Two serial 4-μm-thick, 10%-neutrally-buffered-folmalin-fixed 9 for 24 h), paraffin-embedded liver specimens were prepared and stained routine H&E and Masson's trichrome procedures. The H&E-stained liver specimens were histologically examined according to the aforementioned criteria (Maronpot et al. 1986), and the incidences of HCA and HCC were determined. Grade of fibrosis were evaluated by analyzing percent area occupied by collagen fiber in the Masson's trichrome-stained liver specimens using an IPAP image analyzing system (Sumika Technoservice, Corp., City of Osaka, Osaka, Japan).
Statistical analyses. Statistical analyses were carried out using an InStat software (GraphPad Software, Inc., San Diego, Cali.). Fisher's exact test was used to assess statistical significance of inter-group differences of the lesion incidences. Student-Newrnan-Keuls multiple comparison test was used to assess statistical significance of inter-group differences of means after one-way ANOVA to determine variations among group means, followed by Bartlett's test to determine homogeneity of variance.

[3] = system: GST-P-positive lesions in livers of male Wistar rats fed the CDAA diet; experiment: Example 2: numbers and sizes of GST-P-positive liver lesions, CDAA diet for 16 weeks; assay type: in vivo, rat; conditions: high dose 0.090% in CDAA diet
Description: Animals. A total of 110 male Wistar rats were obtained at 5 weeks of age from Charles River Japan, Inc., Atsugi, Kanagawa, Japan. Experimentation began after a 1-week acclimation on a basal diet (CE-2 diet, Clea Japan, Meguro, Tokyo, Japan). Rats were housed 5 each in plastic cages with white flake bedding (Kansai Animal Corp., City of Kyoto, Kyoto, Japan) in a standard atmosphere (temperature, 25±3° C.; relative humidity, 55±8%; ventilation, 10-15/hour; and a 12-hour dark/light cycle). Free access to food and tap water was allowed throughout the acclimation and experimental periods.
Diets and chemicals. The CDAA diet and its control, a choline-supplemented, L-amino acid-defined (CSAA) diet (Nakae et al. 1992; and Nakae et al. 1990) were obtained from Dyets, Inc., Bethlehem, Pa. […] 2-Sulfoxy-PBN (2-SPBN) was purchased from Aldrich Chemical Co. (Milwaukee, Wis.).
Animal experiment. After acclimation, rats were divided equally into 22 groups consisting of 5 animals each. Animals in group 1 received the CDAA diet alone. […] Groups 5-7, 8-10, 11-13 and 14-16 received the CDAA diet containing the low, middle, and high doses of 4-OHPBN, 3-OHPBN, 2-OHPBN and 2-SPBN, respectively. Group 17 received the CSAA diet alone. […] All animals were sacrificed by exsanguination under light ether anesthesia 16 weeks after commencement, and the livers excised. Slices 5-mm-thick were taken from the left lateral, median and right lateral lobes of the livers, fixed in 10% neutrally-buffered formalin for 24 hours and then embedded in paraffin. Five serial 4-μm-thick sections were prepared from each fixed liver slice and used for histological and immunohistochemical assessment as described below. The remaining portions of the livers were immediately frozen under liquid nitrogen and stored at −80° C. until use.
Histological and immunohistochemical assessments. Histological assessment was performed using sections routinely stained with hematoxylin/eosin and Masson's trichrome procedures. Gradation of fibrosis was quantitatively evaluated in groups 1, 4, 7, 10, 13, 16 and 17 by calculating the percent area occupied by collagen fiber stained blue by Masson's trichrome method using an IPAP image analyzing system (Sumika Technoservice Corp., City of Osaka, Osaka, Japan). GST-P-positive lesions were visualized immunohistochemically. Lesions consisting of more than 6 cells were quantified using the IPAP system as described elsewhere (Kishida et al. 2000). The amount of apoptosis and the cellular proliferative activity were determined in groups 1, 4, 7, 10, 13, 16 and 17, using the double staining techniques by combination of the GST-P immunohistochemistry as above with the in situ terminal deoxynucleotidyl transferase-mediated dUTP-biotin nick end-labeling method (Gold et al. 1994) and the enhanced polymer one-step staining method for proliferating cell nuclear antigen (Tsutsumi et al. 1995), respectively. Numbers of apoptotic and proliferating hepatocytes among the 1000-5000 hepatocytes in GST-P-positive lesions and 5000 hepatocytes in surrounding tissue were counted under light microscopy to obtain percentages that are hereafter referred as apoptotic and proliferative indices, respectively.
Statistics. Inter-group differences in quantitative data for multiple groups were recognized to be significant, when p values smaller than 0.05 were obtained by the Dunnett multiple comparison test employed after one-way analysis of variance to determine the variation among the group means followed by the Bartlett's test to determine the homogeniety of variance.

[4] = system: rats fed the CDAA diet; conditions: cited from earlier work; for size of neoplastic nodules: 12 weeks, CDAA only 1.92; for nodule number: CDAA only 190
[5] = system: rat liver microsome peroxidation; conditions: read-out: IC50, inhibition of rat liver microsome peroxidation; cited from earlier work
[6] = group 2: CDAA diet with PBN 0.065% in drinking water for 70 weeks, CDAA alone 57.1%
[7] = group 3: CDAA with PBN for first 26 weeks, then CDAA alone 44 weeks
[8] = group 4: CDAA alone 26 weeks, then CDAA with PBN for last 44 weeks
[9] = group 6: CSAA control diet with PBN 70 weeks (stated for groups 5 or 6)

CC(C)(C)[N+]([O-])=Cc1ccccc1 [PBN, phenyl N-tert-butyl nitrone]
half-life ([1]; in rats): about 132 minutes | tissue distribution ([1]; rat, in vivo): readily and rapidly distributed almost equally to all tissues | carcinogenicity of PBN itself ([2]; 70-week study, PBN in drinking water): not carcinogenic itself | HCA incidence [2, 6]: 25.0% | HCC incidence [2, 6]: 25.0% | grade of fibrosis, percent of liver specimen occupied by fiber ([2]; group 2: PBN 70 weeks, group 1 (CDAA alone) 13.32%): 9.95% | HCA incidence [2, 7]: 28.6% | HCC incidence [2, 7]: 0% | grade of fibrosis, percent of liver specimen occupied by fiber ([2]; group 3: PBN first 26 weeks, group 1 13.32%): 8.71% | HCA incidence [2, 8]: 62.5% | HCC incidence [2, 8]: 0% | grade of fibrosis, percent of liver specimen occupied by fiber ([2]; group 4: PBN last 44 weeks, group 1 13.32%): 12.86% | grade of fibrosis ([2]; group 6: CSAA control diet with PBN 70 weeks (one value stated for groups 5 or 6)): 1.61% | HCA incidence [2, 9]: 0% | HCC incidence [2, 9]: 0% | number of GST-P-positive lesions, % of the group 1 value [3]: 52% | sizes of GST-P-positive lesions, % of the group 1 value [3]: 19% | size of neoplastic nodules ([4]; CDAA plus PBN 6 mg/kg-day): 0.33 mm^3 | size of neoplastic nodules ([4]; CDAA plus PBN 30 mg/kg-day): 0.17 mm^3 | size of neoplastic nodules ([4]; CDAA plus PBN 60 mg/kg-day): 0.10 mm^3 | nodule number ([4]; PBN 6 mg/kg-day): 170 per mm^3 | nodule number ([4]; PBN 30 mg/kg-day): 149 per mm^3 | nodule number ([4]; PBN 60 mg/kg-day): 142 per mm^3 | reduction of the amount of PGE2 in the CD-livers ([4]; highest dose): about 50% | decrease of nodule size ([4]; highest level of PBN): 95% | 8-OHdG content (marker of DNA oxidation) in the CD-livers ([4]; increasing concentrations of PBN): reduced | decrease of nodule size ([4]; lowest level of PBN (6 mg/kg)): 83% | decrease of nodule number ([4]; lowest level of PBN): 11% | effect on COX-II expression ([4]; mRNA or protein level): no effect | connective tissue proliferation ([4]; rat, in vivo): significantly reduced | IC50 [5]: 5 mM

Reference: patent publication US6569902B2, “Nitrone inhibition of cancer development” (Oklahoma Medical Research Foundation, priority 2000, dated 2003)
